Assay results: US4522815A, “Anthracycline glycosides” (priority 1982, dated 1985)
In brackets after ≈: the same amount, converted by molar mass. Where two headings read alike, the source gives them in different places.

Key:
Gross leukemia [1] = assay: Oral activity against i.v. transplanted Gross leukemia (i.v. comparators); type: in vivo, C3H/Me mice; conditions: Table 7, i.v. +1; for Toxic deaths: two experiments; for T/C %, median survival time: two experiments (range)
From the text: (§1) Results of studies performed in C3H/Me mice carrying i.v. transplanted Gross leukemia and treated i.v. the day after tumor transplantation, are reported in Table 6. […] The compounds Ib and Id were further investigated for oral activity on Gross leukemic transplanted i.v., in comparison with DNR, DX given i.v. and 4-dm DNR given oral route.
Oral activity of Ib and Id against Gross leukemia
^a days after transplantation
(§2) ^d data of two experiments (range)

HeLa cells = assay: Colony inhibition test against HeLa cells in vitro (cloning efficiency), treatment for 24 hrs; type: cell-based; conditions: for IC50: HeLa colony inhibition; for activity at 0.0062 µg/mL: 6.2 ng/ml; for activity at 0.0125 µg/mL: 12.5 ng/ml; for activity at 0.025 µg/mL: 25 ng/ml
ascitic P388 leukemia = assay: Antitumor activity against ascitic P388 leukemia in CDF-1 mice, treatment i.p. on day 1; type: in vivo
Method: The primary screening […] was carried out in CDF-1 mice bearing ascitic P388 leukemia (10^6 cells/mouse). Both IIa and IIc were suspended in 10%. Tween 80 and injected intraperitoneally.
Results of the primary screening "in vivo" carried out in CDF-1 mice bearing P388 ascitic leukemia and treated i.p. the day after tumor transplantation, are reported in Table 5.
Antitumor activity against ascitic P388 leukekemia.
(§3) Treatment i.p. on day 1.
^a median survival time; % over untreated controls
^b long term survivors (≥ 60 days)
^c evaluated on the basis of autoptic findings on dead mice
as §2
^e date of three experiments (range)
Antitumor activity of Ib and Id against ascitic P388
as §3

Gross leukemia [2] = assay: Antitumor activity against i.v. transplanted Gross leukemia in C3H/Me mice, treatment i.v. on day 1; type: in vivo; conditions: Table 6
From the text: as §1
Antitumor activity against i.v. Gross leukemia.
Treatment i.v. on day 1.

[3] = Homo sapiens, HeLa, 24 h, read-out: No of colonies, % of untreated controls, Table 1, 24 hrs
[4] = Homo sapiens, HeLa, 24 h, read-out: No of colonies, % of untreated controls, Table 3, 24 hrs
[5] = Table 2, 4.4 mg/kg i.p. day 1, two experiments
[6] = Table 2, 6.6 mg/kg i.p. day 1, two (DNR) or three (DX) experiments
[7] = Table 2, 10 mg/kg i.p. day 1, three experiments
[8] = Table 5, 4.4 mg/kg i.p. day 1, DNR: two experiments
[9] = Homo sapiens, HeLa, Table 1, 24 hrs, read-out: No of colonies, % of untreated controls
[10] = Table 2, 30 mg/kg i.p. day 1, two experiments

**Q.** With `COc1cccc2c1C(=O)c1c(O)c3c(c(O)c1C2=O)C[C@@](O)(C(=O)CO)C[C@@H]3O[C@H]1C[C@H](N)[C@H](O)[C@H](C)O1` [DX, doxorubicin, reference compound] as the molecule, how does the Toxic deaths (Gross leukemia [1]; 10 mg/kg) read?
**A.** 1/20

**Q.** And the “T/C %, median survival time” value (Gross leukemia [1]; 10 mg/kg)?
**A.** 171-171%

**Q.** What about the Toxic deaths (Gross leukemia [1]; 13 mg/kg) of the same molecule?
**A.** 1/20

**Q.** And the “T/C %, median survival time” value (Gross leukemia [1]; 13 mg/kg)?
**A.** 200-200%

**Q.** And the Toxic deaths (Gross leukemia [1]; 16.9 mg/kg)?
**A.** 3/13

**Q.** What about the “T/C %, median survival time” value (Gross leukemia [1]; 16.9 mg/kg) of the same molecule?
**A.** 200-207%

**Q.** And the IC50 (HeLa cells; Homo sapiens, HeLa, 24 h, read-out: ID50, Table 1, 24 hrs)?
**A.** ~0.01 µg/mL (≈ 0.0184 µM)

**Q.** And the IC50 (HeLa cells; Homo sapiens, HeLa, 24 h, read-out: ID50, Table 3, 24 hrs)?
**A.** ~0.0075 µg/mL (≈ 0.0138 µM)

**Q.** And the activity at 0.0062 µg/mL (HeLa cells; [3])?
**A.** 69%

**Q.** And the activity at 0.0125 µg/mL (HeLa cells; [3])?
**A.** 40%

**Q.** What about the activity at 0.025 µg/mL (HeLa cells; [3]) of the same molecule?
**A.** 24%

**Q.** What about the activity at 0.0062 µg/mL (HeLa cells; [4]) of the same molecule?
**A.** 59%

**Q.** What about the activity at 0.0125 µg/mL (HeLa cells; [4]) of the same molecule?
**A.** 28%

**Q.** And the activity at 0.025 µg/mL (HeLa cells; [4])?
**A.** 0%

**Q.** What about the “T/C, median survival time; % over untreated controls” value (from here on “T/C, median survival time; %”) (ascitic P388 leukemia; Table 2, 4.4 mg/kg i.p. day 1, data of two experiments (range)) of the same molecule?
**A.** 220-227%

**Q.** And the “LTS, long term survivors (≥ 60 days)” value (ascitic P388 leukemia; [5])?
**A.** 2/18

**Q.** What about the “Toxic deaths (autoptic findings on dead mice)” value (ascitic P388 leukemia; [5]) of the same molecule?
**A.** 0/18

**Q.** And the “T/C, median survival time; %” value (ascitic P388 leukemia; Table 2, 6.6 mg/kg i.p. day 1, range of two (DNR) or three (DX) experiments)?
**A.** 227-305%

**Q.** And the “LTS, long term survivors (≥ 60 days)” value (ascitic P388 leukemia; [6])?
**A.** 2/26

**Q.** What about the “Toxic deaths (autoptic findings on dead mice)” value (ascitic P388 leukemia; [6]) of the same molecule?
**A.** 0/26

**Q.** What about the “LTS, long term survivors (≥ 60 days)” value (ascitic P388 leukemia; [7]) of the same molecule?
**A.** 7/26

**Q.** And the “Toxic deaths (autoptic findings on dead mice)” value (ascitic P388 leukemia; [7])?
**A.** 3/26

**Q.** And the “LTS, long term survivors (≥ 60 days)” value (ascitic P388 leukemia; [8])?
**A.** 1/10

**Q.** And the “Toxic deaths (autoptic findings on dead mice)” value (ascitic P388 leukemia; [8])?
**A.** 0/10

**Q.** What about the “T/C, median survival time; %” value (ascitic P388 leukemia; Table 5, 4.4 mg/kg i.p. day 1, DNR: two experiments (range)) of the same molecule?
**A.** 220%

**Q.** And the “LTS, long term survivors (≥ 60 days)” value (ascitic P388 leukemia; Table 5, 6.6 mg/kg i.p. day 1)?
**A.** 0/10

**Q.** What about the “T/C, median survival time; %” value (ascitic P388 leukemia; Table 5, 6.6 mg/kg i.p. day 1) of the same molecule?
**A.** 305%

**Q.** What about the “Toxic deaths (autoptic findings on dead mice)” value (ascitic P388 leukemia; Table 5, 6.6 mg/kg i.p. day 1) of the same molecule?
**A.** 0/10

**Q.** What about the “LTS, long term survivors (≥ 60 days)” value (ascitic P388 leukemia; Table 5, 10 mg/kg i.p. day 1) of the same molecule?
**A.** 5/10

**Q.** What about the “T/C, median survival time; %” value (ascitic P388 leukemia; Table 5, 10 mg/kg i.p. day 1) of the same molecule?
**A.** > 610%

**Q.** What about the “Toxic deaths (autoptic findings on dead mice)” value (ascitic P388 leukemia; Table 5, 10 mg/kg i.p. day 1) of the same molecule?
**A.** 0/10

**Q.** And the “T/C, median survival time; %” value (Gross leukemia [2]; 10 mg/kg i.v. day 1)?
**A.** 171%

**Q.** And the Toxic deaths (Gross leukemia [2]; 10 mg/kg i.v. day 1)?
**A.** 0/10

**Q.** And the “T/C, median survival time; %” value (Gross leukemia [2]; 13 mg/kg i.v. day 1)?
**A.** 200%

**Q.** And the Toxic deaths (Gross leukemia [2]; 13 mg/kg i.v. day 1)?
**A.** 0/10

**Q.** And the “T/C, median survival time; %” value (Gross leukemia [2]; 16.9 mg/kg i.v. day 1)?
**A.** 207%

**Q.** What about the Toxic deaths (Gross leukemia [2]; 16.9 mg/kg i.v. day 1) of the same molecule?
**A.** 3/10

**Q.** `COc1cccc2c1C(=O)c1c(O)c3c(c(O)c1C2=O)C[C@@](O)(C(=O)CO)C[C@@H]3O[C@H]1C=C[C@@H](O)[C@H](C)O1` [Compound IIc, 7-0-(2,3,6-trideoxy-α-L-erythro-hex-2-enopyranosyl)-adriamycinone] was tested. Which “times less cytotoxic than DX” value (HeLa cells; HeLa cells cloning efficiency, vs DX) did it give?
**A.** about 5 times

**Q.** And the activity at 0.0015 µg/mL (HeLa cells; Homo sapiens, HeLa, Table 1, 1.5 ng/ml, 24 hrs, read-out: No of colonies, % of untreated controls)?
**A.** 86%

**Q.** What about the activity at 0.0062 µg/mL (HeLa cells; [9]) of the same molecule?
**A.** 68%

**Q.** What about the activity at 0.025 µg/mL (HeLa cells; [9]) of the same molecule?
**A.** 65%

**Q.** And the activity at 0.1 µg/mL (HeLa cells; Homo sapiens, HeLa, Table 1, 100 ng/ml, 24 hrs, read-out: No of colonies, % of untreated controls)?
**A.** 33%

**Q.** And the activity at 0.4 µg/mL (HeLa cells; Homo sapiens, HeLa, Table 1, 400 ng/ml, 24 hrs, read-out: No of colonies, % of untreated controls)?
**A.** 4%

**Q.** And the IC50 (HeLa cells; Homo sapiens, Table 1, 24 hrs, read-out: ID50 (the source's name))?
**A.** ~0.05 µg/mL (≈ 0.095 µM)

**Q.** What about the “LTS, long term survivors (≥ 60 days)” value (ascitic P388 leukemia; Table 2, 17.6 mg/kg i.p. day 1) of the same molecule?
**A.** 0/8

**Q.** What about the “T/C, median survival time; %” value (ascitic P388 leukemia; Table 2, 17.6 mg/kg i.p. day 1) of the same molecule?
**A.** 118%

**Q.** What about the “Toxic deaths (autoptic findings on dead mice)” value (ascitic P388 leukemia; Table 2, 17.6 mg/kg i.p. day 1) of the same molecule?
**A.** 0/8

**Q.** And the “LTS, long term survivors (≥ 60 days)” value (ascitic P388 leukemia; Table 2, 23 mg/kg i.p. day 1)?
**A.** 0/7

**Q.** What about the “T/C, median survival time; %” value (ascitic P388 leukemia; Table 2, 23 mg/kg i.p. day 1) of the same molecule?
**A.** 127%

**Q.** What about the “Toxic deaths (autoptic findings on dead mice)” value (ascitic P388 leukemia; Table 2, 23 mg/kg i.p. day 1) of the same molecule?
**A.** 0/7

**Q.** And the “LTS, long term survivors (≥ 60 days)” value (ascitic P388 leukemia; [10])?
**A.** 0/17

**Q.** What about the “Toxic deaths (autoptic findings on dead mice)” value (ascitic P388 leukemia; [10]) of the same molecule?
**A.** 0/17

**Q.** What about the “T/C, median survival time; %” value (ascitic P388 leukemia; Table 2, 30 mg/kg i.p. day 1, two experiments (range)) of the same molecule?
**A.** 125-136%

**Q.** And the “LTS, long term survivors (≥ 60 days)” value (ascitic P388 leukemia; Table 2, 45 mg/kg i.p. day 1)?
**A.** 0/10

**Q.** And the “T/C, median survival time; %” value (ascitic P388 leukemia; Table 2, 45 mg/kg i.p. day 1)?
**A.** 130%

**Q.** What about the “Toxic deaths (autoptic findings on dead mice)” value (ascitic P388 leukemia; Table 2, 45 mg/kg i.p. day 1) of the same molecule?
**A.** 0/10

**Q.** What about the “LTS, long term survivors (≥ 60 days)” value (ascitic P388 leukemia; Table 2, 67.5 mg/kg i.p. day 1) of the same molecule?
**A.** 0/10

**Q.** What about the “T/C, median survival time; %” value (ascitic P388 leukemia; Table 2, 67.5 mg/kg i.p. day 1) of the same molecule?
**A.** 140%

**Q.** And the “Toxic deaths (autoptic findings on dead mice)” value (ascitic P388 leukemia; Table 2, 67.5 mg/kg i.p. day 1)?
**A.** 0/10

**Q.** What about the “LTS, long term survivors (≥ 60 days)” value (ascitic P388 leukemia; Table 2, 100 mg/kg i.p. day 1) of the same molecule?
**A.** 0/7

**Q.** And the “T/C, median survival time; %” value (ascitic P388 leukemia; Table 2, 100 mg/kg i.p. day 1)?
**A.** 150%

**Q.** What about the “Toxic deaths (autoptic findings on dead mice)” value (ascitic P388 leukemia; Table 2, 100 mg/kg i.p. day 1) of the same molecule?
**A.** 0/7

**Q.** And the “toxicity and potency vs parent drugs DNR and DX” value (ascitic P388 leukemia; ascitic P388, i.p.)?
**A.** less toxic and potent than the parent drugs DNR and DX

**Q.** And the “antitumor activity on P388 ascitic leukemia” value (ascitic P388 leukemia; i.p. day 1, IIa: two doses tested incl. Mx TD)?
**A.** a certain antitumor activity, which is lower than that of DX
